From the supplement of paper PMC11451515

How the values were obtained:
Settings in all cases: 48 h
NOMO1 [1] = assay: cell viability relative to DMSO control; higher = less cytotoxic
Summary of the method: (§1)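 NOMO1 or SEM (500 cells/well) or P12-Ichikawa (1000 cells/well) leukemia cells were adapted for at least four passages in each medium. They were seeded in 1536-well plates (5 μl) and pin-dosed with library compounds in DMSO over an 11-point threefold series, 47 μM to 0.79 nM. CellTiter-Glo One luminescence was read after 48 h at 37°C. Viability is the per-plate percentage relative to DMSO wells, with cell-free wells as background.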

P12-Ichikawa [2] = assay: as above
Summary of the method: as §1

SEM cells [3] = assay: as above
Summary of the method: as §1

NOMO1 [4] = assay: AUC of viability dose-response curve (% viability x log10 dose units); higher = less sensitive
Summary of the method: (§2)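 Medium-adapted leukemia cells in 1536-well plates, at 500 or 1000 cells/well, were incubated for 48 h at 37°C with library compounds in DMSO at 11 threefold doses from 47 μM to 0.79 nM. CellTiter-Glo One luminescence normalised per plate to DMSO and cell-free wells was fitted with a four-parameter log-logistic model over log10 doses. Area under the curve was integrated from this fit by trapezoidal rule, with curves beyond full viability scaled and failed quality-control curves removed.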

P12-Ichikawa [5] = assay: as above
Summary of the method: as §2

SEM cells [6] = assay: as above
Summary of the method: as §2

Cc1cc2c(C(N)=O)cccc2n1-c1nc2c(c(NCc3ccccc3)n1)COCC2
cell viability [%]
Settings	NOMO1 [1]	P12-Ichikawa [2]	SEM cells [3]
HPLM + 10% dialyzed FBS, 0.000781 µM	117	99.5	89.6
HPLM + 10% dialyzed FBS, 0.00234 µM	124	92.4	95.4
HPLM + 10% dialyzed FBS, 0.00702 µM	101	92.2	73
HPLM + 10% dialyzed FBS, 0.0211 µM	108	93.2	87.2
HPLM + 10% dialyzed FBS, 0.0632 µM	114	99.8	93.5
HPLM + 10% dialyzed FBS, 0.19 µM	103	89.6	93.3
HPLM + 10% dialyzed FBS, 0.569 µM	85.5	78.4	84.9
HPLM + 10% dialyzed FBS, 1.71 µM	25	85.9	38.7
HPLM + 10% dialyzed FBS, 5.12 µM	4.02	2.18	3.03
HPLM + 10% dialyzed FBS, 15.4 µM	3.66	2.06	2.9
HPLM + 10% dialyzed FBS, 46.1 µM	3.75	3.98	3.03
RPMI 5 mM glucose + 10% FBS, 0.000781 µM	89.3	99.6	–
RPMI 5 mM glucose + 10% FBS, 0.00234 µM	106	96.2	–
RPMI 5 mM glucose + 10% FBS, 0.00702 µM	92.9	95.5	–
RPMI 5 mM glucose + 10% FBS, 0.0211 µM	87.8	93.8	–
RPMI 5 mM glucose + 10% FBS, 0.0632 µM	99.8	91.2	–
RPMI 5 mM glucose + 10% FBS, 0.19 µM	98	94.6	–
RPMI 5 mM glucose + 10% FBS, 0.569 µM	81.6	81.7	–
RPMI 5 mM glucose + 10% FBS, 1.71 µM	44.1	63.1	–
RPMI 5 mM glucose + 10% FBS, 5.12 µM	3.08	2.37	–
RPMI 5 mM glucose + 10% FBS, 15.4 µM	3.4	1.97	–
RPMI 5 mM glucose + 10% FBS, 46.1 µM	3.91	2.61	–
RPMI 5 mM glucose + 10% dialyzed FBS, 0.000781 µM	92.9	95.9	94.5
RPMI 5 mM glucose + 10% dialyzed FBS, 0.00234 µM	90.3	94.4	105
RPMI 5 mM glucose + 10% dialyzed FBS, 0.00702 µM	92.4	95.6	85.5
RPMI 5 mM glucose + 10% dialyzed FBS, 0.0211 µM	92.8	97.7	87.7
RPMI 5 mM glucose + 10% dialyzed FBS, 0.0632 µM	91.2	96.3	101
RPMI 5 mM glucose + 10% dialyzed FBS, 0.19 µM	100	95.4	99.4
RPMI 5 mM glucose + 10% dialyzed FBS, 0.569 µM	73.3	91.8	95.8
RPMI 5 mM glucose + 10% dialyzed FBS, 1.71 µM	20.6	72.9	24.1
RPMI 5 mM glucose + 10% dialyzed FBS, 5.12 µM	3.21	2.73	3.45
RPMI 5 mM glucose + 10% dialyzed FBS, 15.4 µM	2.75	2.42	3.44
RPMI 5 mM glucose + 10% dialyzed FBS, 46.1 µM	2.84	2.96	3.1

AUC of viability dose-response curve
Settings	NOMO1 [4]	P12-Ichikawa [5]	SEM cells [6]
HPLM + 10% dialyzed FBS	312	330	295
RPMI 5 mM glucose + 10% FBS	315	322	310
RPMI 5 mM glucose + 10% dialyzed FBS	293	334	312

COc1ccc(C(=O)c2c(C)n(CCN3CCOCC3)c3cc(I)ccc23)cc1
cell viability [%]
Settings	NOMO1 [1]	P12-Ichikawa [2]	SEM cells [3]
HPLM + 10% dialyzed FBS, 0.000781 µM	–	106	85.3
HPLM + 10% dialyzed FBS, 0.00234 µM	–	113	102
HPLM + 10% dialyzed FBS, 0.00702 µM	–	113	111
HPLM + 10% dialyzed FBS, 0.0211 µM	–	124	109
HPLM + 10% dialyzed FBS, 0.0632 µM	–	124	105
HPLM + 10% dialyzed FBS, 0.19 µM	–	121	110
HPLM + 10% dialyzed FBS, 0.569 µM	–	119	103
HPLM + 10% dialyzed FBS, 1.71 µM	–	120	93.8
HPLM + 10% dialyzed FBS, 5.12 µM	–	39.7	98.5
HPLM + 10% dialyzed FBS, 15.4 µM	–	13.7	91.7
HPLM + 10% dialyzed FBS, 46.1 µM	–	9.27	66.4
RPMI 5 mM glucose + 10% FBS, 0.000781 µM	105	115	88
RPMI 5 mM glucose + 10% FBS, 0.00234 µM	112	121	108
RPMI 5 mM glucose + 10% FBS, 0.00702 µM	126	128	104
RPMI 5 mM glucose + 10% FBS, 0.0211 µM	133	122	93.6
RPMI 5 mM glucose + 10% FBS, 0.0632 µM	138	129	106
RPMI 5 mM glucose + 10% FBS, 0.19 µM	122	124	111
RPMI 5 mM glucose + 10% FBS, 0.569 µM	119	133	107
RPMI 5 mM glucose + 10% FBS, 1.71 µM	29.9	130	111
RPMI 5 mM glucose + 10% FBS, 5.12 µM	27.1	41.6	96.4
RPMI 5 mM glucose + 10% FBS, 15.4 µM	24.9	14.3	95.1
RPMI 5 mM glucose + 10% FBS, 46.1 µM	21.1	12.3	52
RPMI 5 mM glucose + 10% dialyzed FBS, 0.000781 µM	100	102	102
RPMI 5 mM glucose + 10% dialyzed FBS, 0.00234 µM	115	110	93.5
RPMI 5 mM glucose + 10% dialyzed FBS, 0.00702 µM	124	130	117
RPMI 5 mM glucose + 10% dialyzed FBS, 0.0211 µM	116	118	115
RPMI 5 mM glucose + 10% dialyzed FBS, 0.0632 µM	130	129	115
RPMI 5 mM glucose + 10% dialyzed FBS, 0.19 µM	126	134	123
RPMI 5 mM glucose + 10% dialyzed FBS, 0.569 µM	137	131	132
RPMI 5 mM glucose + 10% dialyzed FBS, 1.71 µM	52.3	126	129
RPMI 5 mM glucose + 10% dialyzed FBS, 5.12 µM	29.1	94.2	107
RPMI 5 mM glucose + 10% dialyzed FBS, 15.4 µM	27.4	32.8	99.1
RPMI 5 mM glucose + 10% dialyzed FBS, 46.1 µM	23.3	14.9	60.3

AUC of viability dose-response curve
Settings	NOMO1 [4]	P12-Ichikawa [5]	SEM cells [6]
HPLM + 10% dialyzed FBS	354	381	461
RPMI 5 mM glucose + 10% FBS	344	381	461
RPMI 5 mM glucose + 10% dialyzed FBS	357	409	458

O=C(O)CCNC(=O)c1ccc(/N=N/c2ccc(O)c(C(=O)O)c2)cc1
cell viability [%]
Settings	NOMO1 [1]	P12-Ichikawa [2]	SEM cells [3]
HPLM + 10% dialyzed FBS, 0.000781 µM	–	115	116
HPLM + 10% dialyzed FBS, 0.00234 µM	–	116	108
HPLM + 10% dialyzed FBS, 0.00702 µM	–	114	118
HPLM + 10% dialyzed FBS, 0.0211 µM	–	114	109
HPLM + 10% dialyzed FBS, 0.0632 µM	–	110	106
HPLM + 10% dialyzed FBS, 0.19 µM	–	120	105
HPLM + 10% dialyzed FBS, 0.569 µM	–	109	98.9
HPLM + 10% dialyzed FBS, 1.71 µM	–	115	105
HPLM + 10% dialyzed FBS, 5.12 µM	–	112	103
HPLM + 10% dialyzed FBS, 15.4 µM	–	110	101
HPLM + 10% dialyzed FBS, 46.1 µM	–	113	96.7
RPMI 5 mM glucose + 10% FBS, 0.000781 µM	106	–	–
RPMI 5 mM glucose + 10% FBS, 0.00234 µM	125	–	–
RPMI 5 mM glucose + 10% FBS, 0.00702 µM	113	–	–
RPMI 5 mM glucose + 10% FBS, 0.0211 µM	122	–	–
RPMI 5 mM glucose + 10% FBS, 0.0632 µM	110	–	–
RPMI 5 mM glucose + 10% FBS, 0.19 µM	110	–	–
RPMI 5 mM glucose + 10% FBS, 0.569 µM	117	–	–
RPMI 5 mM glucose + 10% FBS, 1.71 µM	106	–	–
RPMI 5 mM glucose + 10% FBS, 5.12 µM	117	–	–
RPMI 5 mM glucose + 10% FBS, 15.4 µM	116	–	–
RPMI 5 mM glucose + 10% FBS, 46.1 µM	76.7	–	–

AUC of viability dose-response curve
Settings	NOMO1 [4]	P12-Ichikawa [5]	SEM cells [6]
HPLM + 10% dialyzed FBS	465	469	443
RPMI 5 mM glucose + 10% FBS	469	447	454
RPMI 5 mM glucose + 10% dialyzed FBS	468	443	464
